In ChEMBL document CHEMBL1212885, “Identification and characterization of acidic mammalian chitinase inhibitors” (J Med Chem, 2010) one finds IC50, Activity and Kd data, which are given here for five compounds.

Assay [1] in a line: Inhibition of chitotriosidase after 60 mins.
Assay [2] deals with Mus musculus. As to the kind of experiment: Antiallergic activity in C57BL/6 mouse assessed as reduction of HDM/CRA-induced chitinase activity in bronchoalveolar lavage fluid at 50 mg/kg, po administered twice daily. The assay is classed as functional, C57BL6, Lung. The arrangement: scale not given: the % may be the effect or the level left.
Assay [3] concerns the target T1, Acidic mammalian chitinase (Homo sapiens, UniProt Q9BZP6). Briefly: Inhibition of acidic mammalian chitinase after 60 mins.
In assay [4] the target is T1, Acidic mammalian chitinase. As to the kind of experiment: Binding affinity to biotinylated-acidic mammalian chitinase.
Assay [5] has as its system Mus musculus. As to the kind of experiment: Antiallergic activity in C57BL/6 mouse assessed as reduction of HDM/CRA-induced chitinase activity in bronchoalveolar lavage fluid at 10 mg/kg, ip administered once daily. The assay is classed as functional, C57BL6, Lung. The arrangement: scale not given: the % may be the effect or the level left. The conditions noted are these: route intraperitoneal.

T1 sequence (Q9BZP6 whole entry): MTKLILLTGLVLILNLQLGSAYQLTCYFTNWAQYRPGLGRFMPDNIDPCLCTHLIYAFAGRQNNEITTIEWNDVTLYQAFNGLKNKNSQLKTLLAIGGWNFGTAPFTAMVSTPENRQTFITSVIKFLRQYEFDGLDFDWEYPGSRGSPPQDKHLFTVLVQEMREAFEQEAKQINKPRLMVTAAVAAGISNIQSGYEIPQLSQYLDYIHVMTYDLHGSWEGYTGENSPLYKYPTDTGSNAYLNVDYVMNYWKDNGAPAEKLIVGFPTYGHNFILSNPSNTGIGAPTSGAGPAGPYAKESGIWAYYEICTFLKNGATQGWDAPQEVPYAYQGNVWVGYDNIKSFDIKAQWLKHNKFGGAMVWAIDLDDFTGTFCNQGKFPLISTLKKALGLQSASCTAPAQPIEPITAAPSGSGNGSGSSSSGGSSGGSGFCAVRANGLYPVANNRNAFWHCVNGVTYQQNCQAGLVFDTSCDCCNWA

The compound `Nc1n[nH]c(N2CCN(CCOc3ccc(Br)cc3)CC2)n1` registered an IC50 in assay [1] of 4.23 µM. In addition, the Activity with Mus musculus [2] was found to be 43%. The compound `Cc1[nH]c2ccccc2c1CN1CCN(c2ccccn2)CC1` yielded an IC50 in assay [1] of 1.34 µM. Same read-out and setting: to `N=C(N)N1CCN(c2ccc(Cl)cc2)CC1` belongs over 100 µM.

`NC(=O)c1cccnc1N1CCNCC1`: the values for the IC50 in assay [3] and in assay [1] were 102 µM and 90.1 µM, respectively. This compound registered a Kd in assay [4] of 141 µM. On to `C[C@@H]1C[C@H]2[C@@H]3CCC4=CC(=O)C=C[C@]4(C)[C@@]3(F)[C@@H](O)C[C@]2(C)[C@@]1(O)C(=O)CO` [DEXAMETHASONE], for which the Activity in the assay with Mus musculus [5] is recorded as 60%.
